The results in this text go back to patent publication US20100076022A1, “NOVEL POLYMORPHS OF RIMONABANT” (HETERO DRUGS LIMITED, priority 2006, published 2010).

The nature of series [1]: stability of the solid form over time. The format is physicochemical. The following applies: test conditions not given.
The nature of series [2]: dissolution rate of the solid form. The format is physicochemical. The following applies: amorphous form compared with crystalline form; test conditions not given.

Consider `Cc1c(C(=O)NN2CCCCC2)nn(-c2ccc(Cl)cc2Cl)c1-c1ccc(Cl)cc1.O` [crystalline rimonabant hydrate], for which, in series [1], the stability entry was “stable over time”.
For the compound `Cc1c(C(=O)NN2CCCCC2)nn(-c2ccc(Cl)cc2Cl)c1-c1ccc(Cl)cc1` [amorphous rimonabant form], in series [1], the stability entry was “highly stable”. Besides, the dissolution rate entry in series [2] is reported as “better dissolution rate”.
